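How tested: cells in 96-well plates exposed to compound for 48 hours at five concentrations. Abbreviation: GI50, concentration required for 50% inhibition of growth. TGI denotes the concentration required for complete inhibition of growth.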
How the values were obtained:
Assay in all cases: NCI tumour cell line growth inhibition, 48 h
SK-MEL-5 melanoma = test system: SK-MEL-5 melanoma
SNB-19 CNS = test system: SNB-19 CNS
OVCAR-4 ovarian = test system: OVCAR-4 ovarian
SK-MEL-2 melanoma = test system: SK-MEL-2 melanoma
COLO 205 colon = test system: COLO 205 colon
T-47D breast = test system: T-47D breast
NCI-H226 lung = test system: NCI-H226 lung
NCI-H460 lung = test system: NCI-H460 lung
HCT-15 colon = test system: HCT-15 colon
HL-60(TB) leukemia = test system: HL-60(TB) leukemia
K-562 leukemia = test system: K-562 leukemia
IGROV1 ovarian = test system: IGROV1 ovarian
SNB-75 CNS = test system: SNB-75 CNS
786-0 renal = test system: 786-0 renal
OVCAR-8 ovarian = test system: OVCAR-8 ovarian
HCT-116 colon = test system: HCT-116 colon
HT29 colon = test system: HT29 colon
LOX IMVI melanoma = test system: LOX IMVI melanoma
UACC-62 melanoma = test system: UACC-62 melanoma
UACC-257 melanoma = test system: UACC-257 melanoma
NCI-H23 lung = test system: NCI-H23 lung
MCF7 breast = test system: MCF7 breast
PC-3 prostate = test system: PC-3 prostate
UO-31 renal = test system: UO-31 renal
MDA-MB-231 breast = test system: MDA-MB-231 breast
NCI/ADR-RES ovarian = test system: NCI/ADR-RES ovarian
NCI-H522 lung = test system: NCI-H522 lung
BT-549 breast = test system: BT-549 breast
RPMI-8226 leukemia = test system: RPMI-8226 leukemia
TK-10 renal = test system: TK-10 renal
A498 renal = test system: A498 renal
HOP-92 NSCLC = test system: HOP-92 NSCLC
HOP-62 NSCLC = test system: HOP-62 NSCLC
CCRF-CEM leukemia = test system: CCRF-CEM leukemia
SK-OV-3 ovarian = test system: SK-OV-3 ovarian
ACHN renal = test system: ACHN renal
OVCAR-3 ovarian = test system: OVCAR-3 ovarian
SF-539 CNS = test system: SF-539 CNS
SN12C renal = test system: SN12C renal
A549 NSCLC = test system: A549 NSCLC
U251 CNS = test system: U251 CNS
SW-620 colon = test system: SW-620 colon
KM12 colon = test system: KM12 colon
SK-MEL-28 melanoma = test system: SK-MEL-28 melanoma
OVCAR-5 ovarian = test system: OVCAR-5 ovarian
HCC-2998 colon = test system: HCC-2998 colon
M14 melanoma = test system: M14 melanoma
MDA-MB-435 = test system: MDA-MB-435
DU-145 prostate = test system: DU-145 prostate
SF-268 CNS = test system: SF-268 CNS
MOLT-4 leukemia = test system: MOLT-4 leukemia
MALME-3M melanoma = test system: MALME-3M melanoma
CAKI-1 renal = test system: CAKI-1 renal
HS 578T breast = test system: HS 578T breast
RXF 393 renal = test system: RXF 393 renal

COc1ccc(-c2nc(-c3nc4ccc(OC)cc4[nH]3)c3ccccn23)cc1
GI50 (SK-MEL-5 melanoma): 1.6 µM
TGI (SK-MEL-5 melanoma): 4.41 µM
GI50 (SNB-19 CNS): 5.26 µM
TGI (SNB-19 CNS): > 100 µM
GI50 (OVCAR-4 ovarian): 4.53 µM
TGI (OVCAR-4 ovarian): > 100 µM
GI50 (SK-MEL-2 melanoma): 4.07 µM
TGI (SK-MEL-2 melanoma): 16.5 µM
GI50 (COLO 205 colon): 7.19 µM
TGI (COLO 205 colon): 39.7 µM
GI50 (T-47D breast): 2.7 µM
TGI (T-47D breast): 9.75 µM
GI50 (NCI-H226 lung): 6.57 µM
TGI (NCI-H226 lung): > 100 µM
GI50 (NCI-H460 lung): 3.23 µM
TGI (NCI-H460 lung): 14 µM
GI50 (HCT-15 colon): 3.76 µM
TGI (HCT-15 colon): 90.6 µM
GI50 (HL-60(TB) leukemia): 2.55 µM
TGI (HL-60(TB) leukemia): 7.75 µM
GI50 (K-562 leukemia): 3.6 µM
TGI (K-562 leukemia): > 100 µM
GI50 (IGROV1 ovarian): 2.7 µM
TGI (IGROV1 ovarian): 6.98 µM
GI50 (SNB-75 CNS): 24 µM
TGI (SNB-75 CNS): > 100 µM
GI50 (786-0 renal): 8.47 µM
TGI (786-0 renal): > 100 µM
GI50 (OVCAR-8 ovarian): 2.35 µM
TGI (OVCAR-8 ovarian): 7.6 µM
GI50 (HCT-116 colon): 3.63 µM
TGI (HCT-116 colon): 13.1 µM
GI50 (HT29 colon): 3.75 µM
TGI (HT29 colon): > 100 µM
GI50 (LOX IMVI melanoma): 4.8 µM
TGI (LOX IMVI melanoma): 26 µM
GI50 (UACC-62 melanoma): 4.51 µM
TGI (UACC-62 melanoma): 22 µM
GI50 (UACC-257 melanoma): 4.39 µM
TGI (UACC-257 melanoma): 26.1 µM
GI50 (NCI-H23 lung): 12.7 µM
TGI (NCI-H23 lung): > 100 µM
GI50 (MCF7 breast): 3.4 µM
TGI (MCF7 breast): > 100 µM
GI50 (PC-3 prostate): 3.01 µM
TGI (PC-3 prostate): 32.2 µM
GI50 (UO-31 renal): 2.47 µM
TGI (UO-31 renal): 7.93 µM
GI50 (MDA-MB-231 breast): 5.65 µM
TGI (MDA-MB-231 breast): > 100 µM
GI50 (NCI/ADR-RES ovarian): 3.86 µM
TGI (NCI/ADR-RES ovarian): 57.7 µM
GI50 (NCI-H522 lung): 2.89 µM
TGI (NCI-H522 lung): 11.2 µM
GI50 (BT-549 breast): 3.2 µM
TGI (BT-549 breast): 8.86 µM
GI50 (RPMI-8226 leukemia): 1.72 µM
TGI (RPMI-8226 leukemia): 5.57 µM
GI50 (TK-10 renal): 2.65 µM
TGI (TK-10 renal): 25.6 µM
GI50 (A498 renal): 4.28 µM
TGI (A498 renal): > 100 µM
GI50 (HOP-92 NSCLC): 2.31 µM
TGI (HOP-92 NSCLC): 8.4 µM
GI50 (HOP-62 NSCLC): 5.07 µM
TGI (HOP-62 NSCLC): > 100 µM
GI50 (CCRF-CEM leukemia): 2.53 µM
TGI (CCRF-CEM leukemia): 26.8 µM
GI50 (SK-OV-3 ovarian): 36.1 µM
TGI (SK-OV-3 ovarian): > 100 µM
GI50 (ACHN renal): 3.57 µM
TGI (ACHN renal): 36.6 µM
GI50 (OVCAR-3 ovarian): 4.97 µM
TGI (OVCAR-3 ovarian): 62.1 µM
GI50 (SF-539 CNS): 9.71 µM
TGI (SF-539 CNS): > 100 µM
GI50 (SN12C renal): 3.91 µM
TGI (SN12C renal): > 100 µM
GI50 (A549 NSCLC): 3.17 µM
TGI (A549 NSCLC): 46.7 µM
GI50 (U251 CNS): 4.42 µM
TGI (U251 CNS): > 100 µM
GI50 (SW-620 colon): 4.26 µM
TGI (SW-620 colon): > 100 µM
GI50 (KM12 colon): 3.88 µM
TGI (KM12 colon): 15.8 µM
GI50 (SK-MEL-28 melanoma): 18.5 µM
TGI (SK-MEL-28 melanoma): > 100 µM
GI50 (OVCAR-5 ovarian): 11.4 µM
TGI (OVCAR-5 ovarian): > 100 µM
GI50 (HCC-2998 colon): 3.96 µM
TGI (HCC-2998 colon): 46.4 µM
GI50 (M14 melanoma): 3.74 µM
TGI (M14 melanoma): 16 µM
GI50 (MDA-MB-435): 3.14 µM
TGI (MDA-MB-435): > 100 µM
GI50 (DU-145 prostate): 4.11 µM
TGI (DU-145 prostate): > 100 µM
GI50 (SF-268 CNS): 4.53 µM
TGI (SF-268 CNS): 64.3 µM
GI50 (MOLT-4 leukemia): 3.37 µM
TGI (MOLT-4 leukemia): 16.9 µM
GI50 (MALME-3M melanoma): 13.3 µM
TGI (MALME-3M melanoma): 70.5 µM
GI50 (CAKI-1 renal): 3.81 µM
TGI (CAKI-1 renal): 49.4 µM
GI50 (HS 578T breast): 2.57 µM
TGI (HS 578T breast): 7.15 µM
GI50 (RXF 393 renal): 24.2 µM
TGI (RXF 393 renal): > 100 µM

— PubChem BioAssay (NCI)
